The values that follow come from US4175081A, “5-Substituted thiadiazole ureas” (priority 1977, dated 1979).

Assay [1] deals with Crabgrass (CG). The experiment in a line: Pre-emergence herbicide test. The class given is in vivo, Digitaria sanquinalis. The following applies: Digitaria sanguinalis, pre-emergence, 336 h, two weeks after treatment; for pest or weed control at 8966.8 g/ha: 8 lb/acre. Put shortly:
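Crabgrass (Digitaria sanquinalis) was surface seeded in 3' plastic pots of potting soil, covered with screened soil, and watered by sub-irrigation in greenhouse trays. Pots were seeded one day before spraying in a hood with a moving belt and fixed nozzle. Plants stayed in the greenhouse on sub-irrigation, and pre-emergence control was rated visually two weeks after treatment.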

The test system of assay [2] is Yellow foxtail grass (YF). Description: Pre-emergence herbicide test. It is filed as in vivo, Setaria glauca. The following applies: Setaria, 336 h, two weeks after treatment; for pest or weed control at 8966.8 g/ha: 8 lb/acre. The protocol:
Yellow foxtail grass (YF)--Setaria glauca
All crop and weed species were planted individually in 3' plastic pots containing potting soil. Four seeds each of corn, cotton, and snapbeans were seeded to a depth equal to the diameter of the seed. All other species were surface seeded and sprinkled with screened soil in an amount sufficient to cover the seed. Immediately after planting, all pots were watered by sub-irrigation in greenhouse trays. Pots for the pre-emergence phase were seeded one day before treatment.
Compounds were tested at rates of application equivalent to 8 lbs. of actual compound per acre in a spray volume of 38 gallons per acre. Spray hood constants required to deliver the above volume are as follows:
Formulations for spray applications were prepared in 50 ml volumes with the following three components:
Formulations for the 4 lbs/acre rate were prepared by adjusting the amount of active ingredient accordingly.
Spray applications were made in a hood containing a removable belt and fixed spray nozzle. For passage through the spray hood, one pot of each specie (pre-emergence phase) was placed on the rear half of the flat. Treatments were removed to the greenhouse after spraying. Watering during the observation period was done only by sub-irrigation.
Two weeks after treatment, pre- and post-emergence injury or control was visually rated, and the results were as shown in the following tables. Pre-emergence data are provided in TABLE III and post-emergence data are provided in TABLE IV, for compounds having the formula illustrated in TABLE I. Correspondingly, pre-emergence and post-emergence data, respectively, are set forth in TABLES V AND VI, for compounds having the formula illustrated in TABLE II.

The subject of assay [3] is Johnson grass (JG). Description: Pre-emergence herbicide test. The conditions noted are these: Sorghum halepense, 336 h, two weeks after treatment; for pest or weed control at 8966.8 g/ha: 8 lb/acre. The class given is in vivo, Sorgum helepense. Put shortly: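 Pots seeded one day before spraying; compound applied pre-emergence at 8 lbs/acre (or 4 lbs/acre) in 38 gallons/acre spray volume. Sub-irrigated in greenhouse; injury/control rated visually two weeks after treatment.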

The test system of assay [4] is Barnyard grass (BG). Description: Pre-emergence herbicide test. It is filed as in vivo. The following applies: Echinochloa crus-galli, 336 h, two weeks after treatment; for pest or weed control at 8966.8 g/ha: 8 lb/acre. Put shortly: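 Barnyard grass surface-seeded in potting soil and sprayed pre-emergence one day after seeding, at 8 or 4 lb compound/acre in 38 gal/acre spray volume. Pots kept in greenhouse with sub-irrigation only; injury or control rated visually two weeks after treatment.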

The test system of assay [5] is Amaranth pigweed (PW). The experiment in a line: Pre-emergence herbicide test. The class given is in vivo, Amaranthus retroflexus. The conditions noted are these: 336 h, two weeks after treatment; for pest or weed control at 8966.8 g/ha: 8 lb/acre. Put shortly:
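Pigweed was surface-seeded in potted soil one day before spraying at 8 lbs compound per acre, or 4 lbs/acre, in 38 gallons per acre. Pots were kept in the greenhouse with sub-irrigation only; injury or control was rated visually two weeks after treatment.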

The test system of assay [6] is Turnip (TP). The experiment in a line: Pre-emergence herbicide test. The following applies: Brassica rapa, pre-emergence, 336 h, two weeks after treatment; for pest or weed control at 8966.8 g/ha: 8 lb/acre. It is filed as in vivo, Brassica sp. Put shortly: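 Turnip (Brassica sp.) seeds were surface sown in 3' plastic pots of potting soil, covered with a thin layer of screened soil, and sub-irrigated in greenhouse trays. Pots were seeded one day ahead of treatment, sprayed pre-emergence under a hood with a fixed nozzle and moving belt, then kept in the greenhouse.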

In assay [7] the test system is Cotton (CT). Description: Pre-emergence herbicide test. The following applies: Gossypium hirsutum, 336 h, two weeks after treatment; for pest or weed control at 8966.8 g/ha: 8 lb/acre. The class given is in vivo, Gossypium hirsutum var. DPL smooth leaf. Put shortly: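 Crop and weed species seeded one day before treatment, then sprayed pre-emergence at 8 lbs actual compound per acre (also 4 lbs/acre formulations) in 38 gallons per acre. Pots kept in greenhouse with sub-irrigation only; injury or control visually rated two weeks after treatment.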

For assay [8], the system named is Corn (CN). The experiment in a line: Pre-emergence herbicide test. The conditions noted are these: Zea mays, 336 h, two weeks after treatment; for pest or weed control at 8966.8 g/ha: 8 lb/acre. It is filed as in vivo. Put shortly: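 Four corn seeds per pot, sown at seed-diameter depth one day before spraying, got soil surface treatment at 8 lbs/acre (4 lbs/acre formulations also prepared) in 38 gallons/acre. Pots were greenhouse-held with sub-irrigation only. Injury or control was scored visually two weeks after treatment.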

Assay [9] relates to Bean (BN). Description: Pre-emergence herbicide test. It is filed as in vivo, Phaseolus vulgaris var. Black Valentine. The conditions noted are these: Phaseolus vulgaris, 336 h, two weeks after treatment; for pest or weed control at 8966.8 g/ha: 8 lb/acre. Put shortly: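 Black Valentine bean was seeded in potting soil one day before spraying. Compound was applied pre-emergence at 8 lbs/acre (also 4 lbs/acre) in 38 gallons per acre. Plants were sub-irrigated and injury or control was rated visually after two weeks.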

In assay [10] the test system is Crabgrass (CG). Description: Post-emergence herbicide test. The class given is in vivo, Digitaria sanquinalis. The conditions noted are these: Digitaria sanguinalis, post-emergence, 336 h, two weeks after treatment; for pest or weed control at 8966.8 g/ha: 8 lb/acre. Put shortly: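 Crabgrass (Digitaria sanquinalis) was surface seeded individually in 3' plastic pots of potting soil, covered with screened soil, and watered by sub-irrigation in greenhouse trays. Planting was staggered so seedlings reached the target stage together. Post-emergence sprays were applied in a hood with a removable belt and fixed nozzle, and control was visually rated two weeks after treatment.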

Assay [11] has as its system Yellow foxtail grass (YF). Description: Post-emergence herbicide test. It is filed as in vivo, Setaria glauca. The conditions noted are these: Setaria, 336 h, two weeks after treatment; for pest or weed control at 8966.8 g/ha: 8 lb/acre. Put shortly:
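Potted seedlings grown in greenhouse, planting staggered to reach the target stage together, then sprayed post-emergence at 8 lbs actual compound/acre in 38 gallons/acre (4 lbs/acre formulations also prepared). Sub-irrigated afterwards. Injury or control rated visually two weeks after treatment.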

The test system of assay [12] is Johnson grass (JG). Description: Post-emergence herbicide test. It is filed as in vivo, Sorgum helepense. The conditions noted are these: Sorghum halepense, 336 h, two weeks after treatment; for pest or weed control at 8966.8 g/ha: 8 lb/acre. Put shortly: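 Greenhouse pot-grown seedlings sprayed post-emergence at 8 lbs compound per acre (some at 4 lbs/acre) in 38 gallons per acre spray volume. Sub-irrigated thereafter. Injury/control rated visually two weeks after treatment.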

Assay [13] has as its system Barnyard grass (BG). Description: Post-emergence herbicide test. The class given is in vivo. The conditions noted are these: Echinochloa crus-galli, 336 h, two weeks after treatment; for pest or weed control at 8966.8 g/ha: 8 lb/acre. Put shortly:
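Greenhouse pot-grown barnyard grass seedlings sprayed post-emergence at 8 lbs active compound per acre (some at 4 lbs/acre) in 38 gallons per acre, then sub-irrigated. Injury or control rated visually two weeks after treatment.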

Assay [14] deals with Amaranth pigweed (PW). Description: Post-emergence herbicide test. It is filed as in vivo, Amaranthus retroflexus. The conditions noted are these: 336 h, two weeks after treatment; for pest or weed control at 8966.8 g/ha: 8 lb/acre. Put shortly:
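Pot-grown pigweed was sprayed post-emergence at the 1–2 true-leaf stage with compound at rates equivalent to 8 lbs per acre (formulations also prepared for 4 lbs/acre) in 38 gallons per acre, using a hood with fixed nozzle. Plants were sub-irrigated in the greenhouse, and injury or control was rated visually two weeks after treatment.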

Assay [15] relates to Turnip (TP). The experiment in a line: Post-emergence herbicide test. The conditions noted are these: Brassica rapa, post-emergence, 336 h, two weeks after treatment; for pest or weed control at 8966.8 g/ha: 8 lb/acre. It is filed as in vivo, Brassica sp. Put shortly: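 A greenhouse post-emergence herbicide test on turnip. Seeds were sown on the surface of potting soil in 3' plastic pots, lightly covered with screened soil and watered from below. Planting was timed so seedlings had 1 or 2 true leaves above the cotyledons at spraying, done in a hood with a fixed nozzle. Control or injury was scored by eye after two weeks.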

Assay [16] has as its system Cotton (CT). Description: Post-emergence herbicide test. It is filed as in vivo, Gossypium hirsutum var. DPL smooth leaf. The following applies: Gossypium hirsutum, post-emergence, 336 h, two weeks after treatment; for pest or weed control at 8966.8 g/ha: 8 lb/acre. Put shortly: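 Cotton (Gossypium hirsutum var. DPL smooth leaf) was grown in 3' plastic pots of potting soil, four seeds per pot, planted at a depth equal to the seed diameter and watered by sub-irrigation. At the stage of expanded cotyledons with the first true leaf 1' long, plants were sprayed post-emergence in a hood with a fixed nozzle over a moving belt. Percent control was rated visually two weeks later.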

The subject of assay [17] is Corn (CN). The experiment in a line: Post-emergence herbicide test. It is filed as in vivo. The following applies: Zea mays, 336 h, two weeks after treatment; for pest or weed control at 8966.8 g/ha: 8 lb/acre. Put shortly: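 Greenhouse seedlings grown in potting soil and sprayed post-emergence at 8 lbs compound/acre (formulations also made for 4 lbs/acre) in 38 gallons/acre spray volume. Watering by sub-irrigation only. Injury or control rated visually two weeks after treatment.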

Assay [18] relates to Bean (BN). Description: Post-emergence herbicide test. The class given is in vivo, Phaseolus vulgaris var. Black Valentine. The conditions noted are these: Phaseolus vulgaris, post-emergence, 336 h, two weeks after treatment; for pest or weed control at 8966.8 g/ha: 8 lb/acre. Put shortly: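 Snapbean (Phaseolus vulgaris var. Black Valentine) was tested post-emergence. Four seeds were sown in 3' plastic pots of potting soil at a depth equal to the seed diameter, then sub-irrigated in greenhouse trays. Planting dates were staggered so plants were sprayed once primary leaves had expanded, with the growing point at the primary leaf nodes.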

Regarding `CN(C)C(=O)N(C)c1nnc(C(F)(F)F)s1` [Example 4, 1,1,3-Trimethyl-3-[5-Trifluoromethyl-2-(1,3,4-Thiadiazolyl)] Urea], the pest or weed control (in general, how far the test organism was held down) at 4483.4 g/ha in assay [1] (4 lb/acre) turned out to be 100%; in [2] (4 lb/acre) it was 80%; in assay [3] (4 lb/acre), 40%; in assay [4] (4 lb/acre), 90%; in assay [5] (4 lb/acre), 100%; in assay [6] (4 lb/acre) it was 100%. Also, the pest or weed control at 4483.4 g/ha in assay [7] (4 lb/acre) was 70%; in assay [8] (4 lb/acre) it was 70%; in assay [9] (4 lb/acre) it was 90%; in assay [10] (4 lb/acre) it was 80%; in [11] (4 lb/acre), 90%; in [12] (4 lb/acre) it was 40%. The pest or weed control at 4483.4 g/ha in [13] (4 lb/acre) came to 60%; in assay [14] (4 lb/acre) it was 100%; in assay [15] (4 lb/acre), 100%; in [16] (4 lb/acre) it was 100%; in [17] (4 lb/acre), 100%; in assay [18] (4 lb/acre) it was 100%.

As for `CCNC(=O)Nc1nnc(SC)s1` [Example 28], the pest or weed control at 8966.8 g/ha in assay [1] came out at 40%; in assay [2] it was 30%; in [3], 20%; in assay [4], 50%; in assay [5] it was 30%; in [6], 0%. Also, the pest or weed control at 8966.8 g/ha worked out at 40% in assay [7]; 10% in assay [8]; 80% in assay [9]; 20% in assay [10]; 20% in assay [11]; 20% in assay [12]. The pest or weed control at 8966.8 g/ha in assay [13] turned out to be 20%; in [14] it was 30%; in [15], 50%; in assay [16], 70%; in [17], 20%; in assay [18] it was 50%.

In the case of `O=C(Nc1ccccc1)Nc1nnc(C(F)(F)F)s1` [Example 14], the pest or weed control at 8966.8 g/ha in assay [1] was 10%; in [2] it was 10%; in assay [3], 20%; in [4], 10%; in assay [5], 90%; in assay [6] it was 10%. The pest or weed control at 8966.8 g/ha in assay [7] stood at 50%; in [8] it was 50%; in assay [9], 100%; in assay [10], 10%; in [11], 10%; in assay [12], 20%. Moreover, the pest or weed control at 8966.8 g/ha in [13] was determined as 10%; in assay [14], 90%; in assay [15], 10%; in [16], 50%; in [17], 50%; in assay [18] it was 100%.

`CCCNC(=O)Nc1nnc(SC)s1` [Example 29]: the pest or weed control at 8966.8 g/ha in [1] stood at 20%; in assay [2], 10%; in assay [3] it was 10%; in assay [4], 10%; in [5], 10%; in assay [6], 0%. The pest or weed control at 8966.8 g/ha in assay [7] was 30%; in assay [8], 30%; in [9], 80%; in assay [10] it was 30%; in assay [11], 20%; in assay [12] it was 20%. Besides, the pest or weed control at 8966.8 g/ha in assay [13] amounted to 20%; in assay [14] it was 40%; in assay [15], 40%; in [16], 60%; in assay [17], 20%; in assay [18], 100%.
